Nc1cccc2c1C(=O)N(C1CCC(=O)NC1=O)C2=O (stereo unspecified)
solubility (mole fraction)
Conditions	278.15 K	283.15 K	288.15 K	293.15 K	298.15 K	303.15 K	308.15 K	313.15 K	318.15 K
in acetone	1.43e-06	2e-06	2.59e-06	3.32e-06	4.27e-06	5.32e-06	6.53e-06	7.84e-06	9.49e-06
in ethanol	1.8e-07	2.4e-07	3.1e-07	4.1e-07	5.3e-07	6.8e-07	8.5e-07	1.04e-06	1.26e-06
in ethyl acetate	4.5e-07	6.6e-07	9.3e-07	1.21e-06	1.55e-06	1.95e-06	2.38e-06	2.96e-06	3.62e-06
in isopropanol	2.3e-07	3.4e-07	4.8e-07	6.3e-07	8.1e-07	1.02e-06	1.26e-06	1.56e-06	1.9e-06
